Data as given in patent US20250002954A1, “Novel Compound, Use Thereof, and Method for Producing Same, and Compound-Containing Composition, Method for Producing 4-Trehalosamine, and Microorganism” (Microbial Chemistry Research Foundation, priority 2021, published 2025).
One block for each molecule: values may come before it.

Tests used:
[1] = Measurement of critical micelle concentration (CMC) with CMC assay kit; assay type: physicochemical
Description: (§1) For the IMCTA-C8, IMCTA-C9, IMCTA-C10, IMCTA-C11, IMCTA-C12, IMCTA-C13, IMCTA-C14, and IMCTA-C15 (IMCTA-Cn) that were obtained in synthesis examples 1 to 8 and for n-dodecyl-β-D-maltoside (DDM) as control, “critical micelle concentration (CMC)”, “micelle size”, and “Hydrophilic-Lipophilic Balance (HLB) value” were measured or calculated in the following manner.
CMC was measured with a Detergent Critical Micelle Concentration (CMC) Assay Kit (CMC1000, manufactured by ProFoldin) according to the product protocol.

[2] = Measurement of micelle size by dynamic light scattering; assay type: physicochemical
Description: as §1
Micelle sizes were measured by dynamic light scattering with Zetasizer Nano S (manufactured by Malvern Panalytical).

[3] = test system: human ovarian cancer cells OVK18 and human malignant melanoma cells Mewo; test: Autophagy inducing effect on cultured cells (western blotting of autophagy-related proteins); assay type: cell-based; conditions: for accumulation of PCD (precursors of cathepsin D) / concentration giving same or higher LC3-II expression, relative to trehalose / p62 / pAkt / phosphorylation of p70 S6K: 24 hours; for expression of LC3-II (autophagy marker): 24 hours treatment, western blotting
Description: Expression and phosphorylation patterns of autophagy-related proteins when human ovarian cancer cells or human malignant melanoma cells were treated with 4-trehalosamine and trehalose analog for 24 hours were determined by western blotting.
Human ovarian cancer cells OVK18 (obtained from RIKEN BRC) and human malignant melanoma cells Mewo (JCRB0066) were each inoculated on a 12-well microplate at 8×10^4 cells/mL/well and cultured in DMEM culture medium at 37° C. for 72 hours, after which they were treated with test samples.
The test samples used were the 4-trehalosamine (4TA) obtained in the <Purification process> of production example 10, trehalose (TRH), the IMCTA-Cn compounds obtained in synthesis examples 1 to 8, trehalose ester (TRH-Cn) (manufactured by Dojindo Laboratories), n-dodecyl-β-D-maltoside (DDM), maltose (MLT), sucrose (SCR), and rapamycin (RM). Untreated cells without addition of compounds were used as control.
In treatment with the test samples, in order to avoid contact of a compound with locally high concentration with cells, a half of the culture fluid in each well was taken, and a required amount of test sample was dissolved in it. After dissolving it sufficiently, it was returned to the original well and treated at 37° C. for 24 hours.
Subsequently, culture medium containing the test samples was removed, washed once with PBS, and dissolved with 2×SDS sample buffer not containing 2-mercaptoethanol (2-ME) or bromphenol blue (BPB). After measuring the protein concentration in the dissolved sample with a BCA protein assay kit (manufactured by Thermo Fisher Scientific), 2-ME and BPB were added and the sample was boiled for 5 minutes, which was used as a sample for western blotting.
The western blotting was performed in a similar manner to test example 4 except that anti-LC3 antibody, which is a marker for autophagy, anti-p62, anti-cathepsin D antibody, anti-Phospho-Akt (Ser473) antibody, anti-Akt antibody, anti-Phospho-p70 S6K (T389) antibody, and anti-p70 S6K antibody (all manufactured by Cell Signaling Technology) were used at 1/2,000 dilution as the primary antibodies in the method described in test example 4.
The results for human ovarian cancer cells OVK18 are shown in FIGS. 20A to 20C, and the results for human malignant melanoma cells Mewo are shown in FIGS. 20D to 20F. In FIGS. 20A, 20B, 20D, and 20E, “PCD” denotes precursors of cathepsin D and “CD-HC” denotes cathepsin D heavy chain.

[4] = test system: human ovarian cancer cells OVK18 and human malignant melanoma cells Mewo; test: LC3-II expression in combination with autophagy inhibitor (bafilomycin or chloroquine); assay type: cell-based; conditions: 50 mM 4-trehalosamine, 50 μM IMCTA-C14 or 100 mM trehalose 14 hours, then 200 nM BM or 100 μM CQ 4 hours
Description: As with the test example 10-1, human ovarian cancer cells OVK18 (obtained from RIKEN BRC) and human malignant melanoma cells Mewo (JCRB0066) were each inoculated on a 12-well microplate at 8×10^4 cells/mL/well, and cultured in DMEM culture medium at 37° C. for 72 hours. After that, a half of the culture fluid in each well was taken and each compound was dissolved so that the final concentration is 50 mM 4-trehalosamine, 50 μM IMCTA-C14, or 100 mM trehalose. After dissolving it sufficiently, the cells were returned to the original well and treated at 37° C. for 14 hours. Untreated cells without addition of the compounds were used as control.
After that, each autophagy inhibitor was added so that the final concentration is 200 nM bafilomycin (BM) or 100 μM chloroquine (CQ), and the cells were cultured at 37° C. for 4 hours. A group with no inhibitor added was cultured in a similar way. After culture, they were turned into samples for western blotting in a similar manner to test example 10-1.
The western blotting was performed in a similar manner to test example 4 except that anti-LC3 antibody (manufactured by Cell Signaling Technology) was used at 1/2,000 dilution as the primary antibody in the method described in test example 4. The results for human ovarian cancer cells OVK18 are shown in FIG. 21A, and the results for human malignant melanoma cells Mewo are shown in FIG. 21B.
Also, the results (graphs) of image analysis on the results of western blotting via Image J (manufactured by National Institutes of Health) are shown in FIGS. 21A and 21B (n=10, mean±S.D.). The vertical axis of the graph indicates the value of the amount of expression (expression amount ratio) of LC3-II for the groups with the different compounds added when the amount of expression of LC3-II in the control (untreated cells) is 1. […]

[5] = test system: aggregated proteins Q74 and SynA53T in SH-SY5Y cells and NH-12 cells; test: Elimination effect on aggregated protein in cells (Q74, SynA53T); assay type: cell-based, human; conditions: 100 mM 4-trehalosamine, 70 μM IMCTA-C14 or 100 mM trehalose, 14 hours; SH-SY5Y and NH-12 cells
Description: The effect of 4-trehalosamine or trehalose analog on Q74, which is partial peptide of huntingtin (Htt), the causal protein of Huntington's disease, and SynA53T, which is a mutation of α-synuclein, the causal protein of Parkinson's disease, (both aggregated proteins) was determined in the following manner.
Neuroblastoma cells SH-SY5Y (obtained from European Collection of Authenticated Cell Cultures (ECACC)) and human neuroblastoma cells NH-12 (obtained from RIKEN BRC) were each inoculated at 14×10^4 cells/mL and cultured in DMEM culture medium at 37° C. for 48 hours.
After the culture of SH-SY5Y cells and NH-12 cells, pEGFP-Q74 vector or EGFP-alphasynuclein-A53T (both obtained from addgene), which are expression vectors of aggregated protein, were transfected with transfection reagent (Viafect, manufactured by Promega). After 24 hours from the transfection, 100 mM 4-trehalosamine, 70 μM IMCTA-C14, or 100 mM trehalose was added and the cells were further treated for 14 hours. Untreated cells without addition of the compounds were used as control. After washing the cells three times with PBS, hyposmotic fluid (solution of one tablet of cOmplete, Mini, EDTA-free Protease Inhibitor Cocktail (CM, manufactured by Merck) in 50 mL of pure water) was added and the mixture was shaken on ice for 10 minutes. It was then centrifuged at 21,300×g for 10 minutes to be separated into soluble protein (Sol) and aggregated protein (Agg) […]. Thereafter, they were turned into samples for western blotting in a similar manner to test example 10-1.
The western blotting was performed in a similar manner to test example 4 except that anti-GFP antibody (manufactured by Proteintech) was used at 1/5,000 dilution and anti-LC3 antibody (manufactured by Cell Signaling Technology) was used at 1/2,000 dilution as the primary antibodies in the method described in test example 4. The results for neuroblastoma cells SH-SY5Y are shown in FIGS. 22A and 22B, and the results for human neuroblastoma cells NH-12 are shown in FIGS. 22C and 22D. […]

[6] = test system: Mycobacterium smegmatis mc^2 (ATCC 700084); test: Staining of mycobacterium with IMCTA-fluorescein, IMCTA-biotin or IMCTA-azide; assay type: cell-based; conditions: for ingestion into bacterial cells and fluorescence (staining): 10 μg/mL IMCTA-fluorescein, 30 μg/mL IMCTA-biotin, 10 μg/mL IMCTA-azide, 37° C., 8 hours; for ingestion in the presence of sucrose (blocking): sucrose 1% or 3%

SMILES: CCCCCCCCCCCCO[C@@H]1O[C@H](CO)[C@@H](O[C@H]2O[C@H](CO)[C@@H](O)[C@H](O)[C@H]2O)[C@H](O)[C@H]1O [DDM, n-dodecyl-β-D-maltoside, reference compound]
- CMC [1]: 0.23 mM
- Micelle size [2]: 6.1 ± 0.1 nm

SMILES: CCCCCCCCN[C@@H]1C(CO)O[C@H](O[C@H]2OC(CO)[C@@H](O)C(O)C2O)C(O)C1O (stereo partly drawn) [IMCTA-C8]
- CMC [1]: 8.02 mM
- Micelle size [2]: 4.3 ± 1.7 nm

SMILES: CCCCCCCCCN[C@@H]1C(CO)O[C@H](O[C@H]2OC(CO)[C@@H](O)C(O)C2O)C(O)C1O (stereo partly drawn) [IMCTA-C9]
- CMC [1]: 3.84 mM
- Micelle size [2]: 5.5 ± 1.3 nm

SMILES: CCCCCCCCCCN[C@@H]1C(CO)O[C@H](O[C@H]2OC(CO)[C@@H](O)C(O)C2O)C(O)C1O (stereo partly drawn) [IMCTA-C10]
- CMC [1]: 2.67 mM
- Micelle size [2]: 5.9 ± 1.8 nm

SMILES: CCCCCCCCCCCN[C@@H]1C(CO)O[C@H](O[C@H]2OC(CO)[C@@H](O)C(O)C2O)C(O)C1O (stereo partly drawn) [IMCTA-C11]
- CMC [1]: 0.96 mM
- Micelle size [2]: 15.9 ± 6.5 nm

SMILES: [N-]=[N+]=N[C@@H]1C(CO)O[C@H](O[C@H]2OC(CO)[C@@H](O)C(O)C2O)C(O)C1O (stereo partly drawn) [IMCTA-azide, 4-azide-4-deoxy-trehalose]
- ingestion into bacterial cells and fluorescence (staining) [6]: ingested into Mycobacterium smegmatis bacterial cells and emitted fluorescence
- fluorescence strength compared among labelers ([6]; same amount of labeler): strongest fluorescence
- ingestion in the presence of sucrose (blocking) [6]: suppression of ingestion was observed
- ingestion in the presence of trehalose (blocking) ([6]; trehalose 1% or 3%): suppression of ingestion was observed

SMILES: O=C(CCCC[C@@H]1SC[C@@H]2NC(=O)N[C@@H]21)N[C@@H]1C(CO)O[C@H](O[C@H]2OC(CO)[C@@H](O)C(O)C2O)C(O)C1O (stereo partly drawn) [IMCTA-biotin]
- ingestion into bacterial cells and fluorescence (staining) [6]: ingested into Mycobacterium smegmatis bacterial cells and emitted fluorescence
- staining pattern ([6]; fluorescence microscope): patch-like staining pattern
- ingestion in the presence of sucrose (blocking) [6]: some suppression of ingestion by sucrose

Continued, in another order:

- CMC [1]: 0.58 mM
- Micelle size [2]: 13.7 ± 6.4 nm
SMILES: CCCCCCCCCCCCN[C@@H]1C(CO)O[C@H](O[C@H]2OC(CO)[C@@H](O)C(O)C2O)C(O)C1O (stereo partly drawn) [IMCTA-C12]

- CMC [1]: 0.24 mM
- Micelle size [2]: 17.3 ± 10.9 nm
SMILES: CCCCCCCCCCCCCN[C@@H]1C(CO)O[C@H](O[C@H]2OC(CO)[C@@H](O)C(O)C2O)C(O)C1O (stereo partly drawn) [IMCTA-C13]
- accumulation of PCD (precursors of cathepsin D) [3]: no accumulation of PCD was observed
- concentration giving same or higher LC3-II expression, relative to trehalose [3]: several thousand times lower than trehalose
- p62 [3]: accumulation trend of p62
- pAkt [3]: decreasing trend of pAkt
- phosphorylation of p70 S6K [3]: p70 S6K was not dephosphorylated
- expression of LC3-II (autophagy marker) [3]: particularly strong expression

- CMC [1]: 0.11 mM
- Micelle size [2]: 16.5 ± 4.4 nm
SMILES: CCCCCCCCCCCCCCN[C@@H]1C(CO)O[C@H](O[C@H]2OC(CO)[C@@H](O)C(O)C2O)C(O)C1O (stereo partly drawn) [IMCTA-C14]
- accumulation of PCD (precursors of cathepsin D) [3]: no accumulation of PCD was observed
- concentration giving same or higher LC3-II expression, relative to trehalose [3]: several thousand times lower than trehalose
- p62 [3]: accumulation trend of p62
- pAkt [3]: decreasing trend of pAkt
- phosphorylation of p70 S6K [3]: p70 S6K was not dephosphorylated
- expression of LC3-II (autophagy marker) [3]: particularly strong expression
- expression of LC3-II in combination with bafilomycin (BM) or chloroquine (CQ) [4]: increased expression of LC3-II
- aggregate of Q74 and aggregate of SynA53T [5]: significantly decreased

- CMC [1]: 0.06 mM
- Micelle size [2]: 92.5 ± 49 nm
SMILES: CCCCCCCCCCCCCCCN[C@@H]1C(CO)O[C@H](O[C@H]2OC(CO)[C@@H](O)C(O)C2O)C(O)C1O (stereo partly drawn) [IMCTA-C15]
- accumulation of PCD (precursors of cathepsin D) [3]: no accumulation of PCD was observed
- concentration giving same or higher LC3-II expression, relative to trehalose [3]: several thousand times lower than trehalose
- p62 [3]: accumulation trend of p62
- pAkt [3]: decreasing trend of pAkt
- phosphorylation of p70 S6K [3]: p70 S6K was not dephosphorylated
- expression of LC3-II (autophagy marker) [3]: particularly strong expression
